The subject of experiment [1] is SK-Mel-28. As to the kind of experiment: cell proliferation by MTS assay for 72 h, SK-Mel-28. To be noted: for growth inhibition of SK-Mel 28 cell line (in words): SK-Mel 28, MTS assay. In kind it is cell-based, human. From the text:
(§1) PM 2011 (1) inhibits tumor cell lines independent of endothelin receptor A (ETA) inhibition: Others have disclosed PM 2011 (1) and its derivatives as potent endothelin receptor antagonists (WO 92/12991, EP 526,642, U.S. Pat. No. 5,248,807, U.S. Pat. No. 5,463,107 and U.S. Pat. No. 5,587,505). We have used human tumor cell lines to evaluate the effects of PM 2011 (1) on endothelin-1 (ET-1) dependent biologic functions. Some of these cell lines are well characterized for the expression and role of ET-1, ETA and ETB (16, 41). […] To validate three cell lines, we studied the effects of BQ123, BQ788, PM2010, PM2011 and PM2012 on cell proliferation by MTS assay for 72 h (16).
(In general: Tetrazolium dyes change colour on reduction, which living cells bring about.)

For experiment [2], the system named is SiHa. As to the kind of experiment: cell proliferation by MTS assay for 72 h, SiHa. It counts as cell-based, human. The settings on record: SiHa tumor cell line.
Excerpt: as §1

Experiment [3] relates to K562. Put plainly: cell proliferation by MTS assay for 72 h, K562. It counts as cell-based, human. To be noted: K562 tumor cell line.
Excerpt: as §1

The subject of experiment [4] is HL60. As to the kind of experiment: cell proliferation by MTS assay for 72 h, HL60. It counts as cell-based, human.
Excerpt: as §1

Experiment [5] deals with C33A. Put plainly: cell proliferation by MTS assay for 72 h, C33A. It counts as cell-based, human.
Excerpt: as §1

Experiment [6] concerns NF-κB. As to the kind of experiment: TNF-α-dependent activation of NF-κB binding to κB site in nuclear extracts of HeLa cells, ELISA (Panomics). It counts as cell-based. The settings on record: HeLa cell nuclear extracts, FIG. 1. An excerpt:
To further explore the additional molecular target(s) for PM2011, we postulated that these compounds could antagonize the activation of NF-κB. To test this hypothesis, we evaluated the effects of PM2010, PM2011 and PM2012 on TNF-α-dependent activation of NF-κB binding to κB site in nuclear extracts of HeLa cells by an ELISA (Panomics) as recommended.
(In general: ELISA stands for enzyme-linked immunosorbent assay.)

Setting [7] is: Homo sapiens, 100 μM, read-out: % Inhibition at 100 μM (i).

“Also recorded” adds a separate entry of the source. Square brackets hold non-standard residues; d marks the D form. Peptide text beside a SMILES is read from it.

What is called IC50 is the concentration at which inhibition is half-maximal. What is called inhibition is the relative decrease from the control value, in per cent. On to `CCCC[C@@H](NC(=O)[C@@H](Cc1cn(C(=O)OC)c2ccccc12)NC(=O)[C@H](CC(C)(C)C)NC(=O)N1[C@H](C)CCC[C@@H]1C)C(=O)O` [BQ788], for which the IC50 stood at 82000 nM in experiment [1] (Homo sapiens, SK-Mel-28 tumor cell line, MTS assay); 45000 nM in experiment [4] (Homo sapiens, HL-60, HL60 tumor cell line); 61800 nM in experiment [5] (Homo sapiens, C-33-A, C33A tumor cell line, MTS assay, 72 h). In addition, in experiment [1], the “growth inhibition of SK-Mel 28 cell line (in words)” value is “inhibited the growth”. In addition, the results for the inhibition at 100 µM in experiment [2] (setting [7]) and in experiment [3] (setting [7]) were 45% and 0%, respectively.
For `CC(C)C[C@@H]1NC(=O)[C@@H](C(C)C)NC(=O)[C@@H]2CCCN2C(=O)[C@@H](CC(=O)O)NC(=O)[C@@H](Cc2c[nH]c3ccccc23)NC1=O` [BQ-123] (cyclo(L[dW][dD]P[dV])), the “growth inhibition of SK-Mel 28 cell line (in words)” value in experiment [1] is recorded as “no growth inhibition”. Besides, the “% Inhibition at 100 μM (i)” value in experiment [1] (SK-Mel-28 tumor cell line, 100 μM, MTS assay) was 0% i; in experiment [2] (100 μM), 0% i; in experiment [3] (100 μM), 30%; in experiment [5] (C33A tumor cell line, 100 μM, MTS assay, 72 h) it was 20% i. It took 46000 nM to reach half-maximal inhibition in experiment [4] (HL60 tumor cell line) (IC50).
On to Myriceric acid A [PM2011], for which the IC50 worked out at 900 nM in experiment [1] (SK-Mel-28 tumor cell line, MTS assay); 3000 nM in experiment [2]; 1000 nM in experiment [3]; 2300 nM in experiment [4] (HL60 tumor cell line); 1300 nM in experiment [5] (C33A tumor cell line, MTS assay, 72 h). In experiment [6], the “NF-κB binding to κB site / inhibition of NF-κB activation (in words)” value is listed as “dose-dependent inhibition; also recorded: dose-dependent decrease”. Further, the “inhibition of C33A (in words)” value in experiment [5] (HPV-negative cell line C33A, neither secretes ET-1 nor expresses ETA) was “inhibition”.
